{"source": "patent US20140314791A1", "about": "“METHODS OF TREATING CANCER” (DANA-FARBER CANCER INSTITUTE, INC., priority 2012, published 2014)", "system": "Lkb1-null cells", "experiment": "In vitro study of combination treatments with AZD7762", "type": "cell-based, mouse", "conditions": "data not shown", "data": [{"smiles": "Nc1ccn([C@@H]2O[C@H](CO)[C@@H](O)C2(F)F)c(=O)n1", "note": "[Gemcitabine]", "values": [{"measurement": "synergy with AZD7762 in the treatment of Lkb1-null cells", "value": "moderately synergistic"}]}]}
